Like-named read-outs stand apart in the source and are kept apart here.
Tests used:
[1] = test system: P. falciparum male gametocytes; assay: PhIDDLI screening assay, 24 h preincubation at 10xIC50, tubulin/DAPI imaging of male gametogenesis; assay type: cell-based, Plasmodium falciparum NF54; conditions: approximately 10xIC50, fixed 20 min post-induction
Description: Mature gametocytes were treated for 24h with approximately 10xIC50 of test compounds or DMSO as a solvent control. Male gametogenesis was then induced by lowering the temperature from 37°C to ~20°C and adding xanthurenic acid. 20min later, when male gametogenesis (exflagellation) could be expected to peak, all samples were fixed. A sample of non-induced DMSO-treated gametocytes was fixed with 4% paraformaldehyde to provide an unactivated gametocyte control for comparison. The cells were then processed for immunofluorescence using an antibody against alpha-tubulin II and DNA staining with 4′,6-diamidino-2-phenylindole (DAPI) and visualised by fluorescence microscopy. Tubulin-bright cells from each treated sample were imaged and captured at random.
Cells were identified using a semi-automated pipeline established in the ICY BioImageAnalysis (https://icy.bioimageanalysis.org/) protocols module. Images and accompanying bounding boxes representing the outlines of identified cells were then passed to the PhIDDLI pipeline. PhIDDLI consists of several open source image processing and AI/ML modules connected for seamless processing, clustering and visualisation of cellular phenotypes (Fig 3A). […] To focus on the overall cellular phenotype rather than potentially confounding variable immunostaining intensities between experimental replicates, cells were transformed so that the range of staining intensities for each channel were normalised to fall between a 0–255 pixel intensity value. Then, using the Albumentations module (https://albumentations.ai/) to augment the dataset and control for cells in different orientations, each extracted cell image was rotated 90, 180 and 270 degrees and mirrored so that each cell was represented eight different times in the dataset. The augmented images were then passed to the EffcientNet-B1 module (https://github.com/tensorflow/tpu/tree/master/models/official/efficientnet) (a pretrained neural network developed for image processing) which extracted 1,000 distinct numerical features from each individual cell image. The EfficientNet-B1 was selected from amongst the other EfficientNet models due to its input image size (240 pixels) best matching the size of the individual cell images in the dataset, therefore ensuring maximal input data whilst allowing acceptable computation time on a desktop computer. […]
Mature gametocyte cultures were divided into 100 μl “microcultures” in pre-warmed 1.5 ml tubes also containing 100 μl complete culture medium with test compounds at a final concentration of 10xIC50 or 0.5% DMSO as a solvent control. Tubes were gassed and incubated at 37°C for 24 h. The entire compound library was screened once, spread over four different experiments, each with two DMSO control tubes. An 8% formaldehyde solution was prepared by diluting 16% methanol-free formaldehyde in an equal volume of phosphate-buffered saline (PBS). In each experiment, one DMSO control tube was fixed with equal volume of 8% formaldehyde (4% final concentration) at 37°C to provide an “unactivated” gametocyte control. Gametogenesis was then triggered in the remaining DMSO control tube and all compound tubes by adding 10 μl ookinete medium, and they were immediately incubated at room temperature. After 20 min (when exflagellation is maximal), all remaining tubes were fixed for 30 min.
100 μl of the fixed cell suspensions were added to wells of a 24 well plate containing 1ml PBS and a poly-l-lysine-coated glass coverslip.

[2] = test system: P. falciparum male gametocytes; assay: P. falciparum Dual Gamete Formation Assay (PfDGFA), male readout (exflagellation); assay type: cell-based, Plasmodium falciparum NF54; conditions: for IC50: this study, read-out: Pf DGFA IC50 MALE
In short: (§1)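 Two sex-specific readouts come from one well: male exflagellation centres recorded by brightfield video right after activation, and female gametes scored by Cy3-anti-Pfs25 fluorescence after 24 h at 28°C.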

[3] = test system: P. falciparum female gametocytes; assay: P. falciparum Dual Gamete Formation Assay (PfDGFA), female readout (Pfs25-positive female gametes); assay type: cell-based, Plasmodium falciparum NF54; conditions: for IC50: this study, read-out: Pf DGFA IC50 FEM
In short: as §1

[4] = test system: P. falciparum male gametocytes; assay: PhIDDLI timecourse assay, compound added at timepoints after triggering male gametogenesis; assay type: cell-based, Plasmodium falciparum NF54
[5] = test system: P. falciparum female gametocytes; assay: P. falciparum Female Gametocyte Activation Assay (PfFGAA); assay type: cell-based, Plasmodium falciparum; conditions: Mean TOX HepG2 over FGAA IC50; GREEN = >10-fold; RED = <10-fold
[6] = test system: P. falciparum gametocytes; assay: P. falciparum Gametocyte Viability ATP Assay (PfGCT); assay type: cell-based, Plasmodium falciparum; conditions: Mean TOX HepG2 over GC-ATP IC50; GREEN = >10-fold; RED = <10-fold
Text: Fig 1 The activity of TCAMS compound identified in the Pf DGFA screen. (A) 85 molecules were confirmed active in the Pf DGFA. 58 were previously identified in one or more transmission-blocking screens. […] No molecule was identified with >4.7-fold greater activity against female gametocytes. Abbreviations (IC50 = concentration giving 50% inhibition, PbODA = P. berghei Ookinete Development Assay, PfDGFA = P. falciparum Dual Gamete Formation Assay, PfFGAA = P. falciparum Female Gametocyte Activation Assay, PfGCT = P. falciparum Gametocyte Viability ATP Assay).

[7] = test system: P. falciparum female gametocytes; parameters: method as in Miguel-Blanco et al 2017; conditions: ref Miguel-Blanco et al 2017; read-out: Pf female gametogenesis FGAA IC50; cited from earlier work
[8] = test system: P. falciparum gametocytes; parameters: method as in Almela et al 2015; conditions: ref Almela et al 2015; read-out: Pf Gametocyte viability (ATP) GC-ATP IC50; cited from earlier work
HepG2 cells [9] = conditions: cited from earlier work
HepG2 cells [10] = assay: HepG2 cytotoxicity counter-screen; conditions: mean of the HepG2 TOX50 values
[11] = test system: P. berghei ookinete development; assay: P. berghei Ookinete Development Assay (PbODA); assay type: cell-based, Plasmodium berghei; conditions: Mean TOX HepG2 over Pb ODA value; GREEN = >10-fold; RED = <10-fold

Row | Structure (SMILES) | Cellular phenotype of male gametocytes [1] | Cytotox ratio Pf Male [2] | IC50 [2] [nM] | Cytotox ratio Pf Female [3] | IC50 [3] [nM] | impact on exflagellation ([4]; compound added concurrent with triggering gametogenesis or at any other point) | Cytotox ratio Pf FGAA [5] | Cytotox ratio Pf GC-ATP [6] | IC50 [7] [nM] | IC50 [8] [nM] | FGAA TOX50 HepG2 (HepG2 cells [9]) [µM] | GC-ATP TOX50 HepG2 (HepG2 cells [9]) [µM] | Mean TOX (HepG2 cells [10]) [µM] | cells exflagellating ([4]; compound added concurrent with triggering gametogenesis, DMSO control 43.7%) [%] | Cytotox ratio Pb Ookinete [11] | ODA TOX50 HepG2 (HepG2 cells [9]; HepG2 value reported with the ODA screen, ref Delves et al 2019) [µM]
1 | O=S(=O)(NCC1(O)CCOc2ccccc21)c1ccc(Br)s1 (stereo not drawn) [DDD01035881, reference compound] | arrested male gametogenesis late |  |  |  |  |  |  |  |  |  |  |  |  |  |  | 
2 | CC(C)(C)c1ccc(-c2nc3c(ccc4nc(N)nc(N)c43)[nH]2)cc1.Cl [TC05] |  | 17.1 | 180 | 3.2 | 970 | little-to-no impact | 11.8 | 14.6 | 260 | 210 | 2.12 | 3.85 | 3.07 |  |  | 
3 | O=C(c1ccc([N+](=O)[O-])o1)N1CCC(Cc2ccc(C(F)(F)F)cc2)CC1 [TC15] | retain their falciform shape but have a condensed mass of unreplicated DNA and several thin microtubule structures | 58.0 | 400 | 52.7 | 440 |  | 145.0 | 89.2 | 160 | 260 | 27.05 | 14.11 | 23.20 |  |  | 
4 | CCN(CC)CCN(Cc1ccc(-c2ccc(C(F)(F)F)cc2)cc1)C(=O)Cn1cc(Cc2cnn(C)c2)c(=O)nc1/C=C/c1cccc(F)c1F.O=C(O)C(O)C(O)C(=O)O [TC18] | retain their falciform shape but have a condensed mass of unreplicated DNA and several thin microtubule structures | 19.6 | 630 | 3.0 | 4100 |  | 14.2 | 72.7 | 870 | 170 | 9.69 | 14.4 | 12.35 |  |  | 
5 | Fc1ccc2[nH]c(-c3ccc(-c4ccc(CNCCN5CCNCC5)cc4)s3)nc2c1.O=C(O)C(F)(F)F [TC23] |  | 12.4 | 1970 | 3.4 | 7180 |  |  | 46.3 |  | 530 |  | 25 | 24.53 | 19.8 |  | 
6 | COc1cc(-c2nc(C(C)(C)CN)[nH]c2-c2ccncc2)ccc1Br.Cl [TC27] | unactivated phenotype consistent with total arrest of gametogenesis | 23.6 | 1770 | 25.9 | 1610 |  |  |  |  |  |  |  | 41.74 |  | 31592.6 | 39.811

From publication PMC10584170, “Machine learning-based phenotypic imaging to characterise the targetable biology of Plasmodium falciparum male gametocytes for the development of transmission-blocking antimalarials” (PLOS Pathogens, 2023)
